# Values of other authors in patent publication US20250032488A1, “METHODS OF TREATMENT USING LOU064” (NOVARTIS AG, priority 2021, published 2025).
# Where “and” joins values, the source holds several entries; their conditions need not be identical. Equal values may be shown once. Read-outs that look alike come from different tables or passages of the source.
# Experiments:
# [1] = human, in vivo; cited from earlier work
# [2] = higher dose treatment arms, phase IIa; cited from earlier work
# [3] = 75 mg b.i.d., Phase II; cited from earlier work
smiles,measurement,setting,value
C=CC(=O)N1CCC[C@@H](n2c(=O)n(-c3ccc(Oc4ccccc4)cc3)c3c(N)nccc32)C1 [tolebrutinib],Dose-limiting side effect,[1],dose-limiting diarrhea
C[C@H]1CN(C2COC2)CCN1c1ccc(Nc2cc(-c3ccnc(N4CCn5c(cc6c5CC(C)(C)C6)C4=O)c3CO)cn(C)c2=O)nc1 [fenebrutinib],Subjects with transient grade 3 elevations of ALT and/or AST,[2],8.3% and 6.3%
C=CC(=O)N1CCC(CNc2ncnc(N)c2-c2ccc(Oc3ccccc3)cc2)CC1 [evobrutinib],Dose-limiting side effect,[3],dose-limiting liver enzyme elevations
